In patent EP0908457B1, “3-(1,2-benzisothiazol- and isoxazol-5-Y1)-2,4(1H,3H)-pyrimidinedione or thione and 3-(1,2-benzisothiazol- and isoxazol-5-y1)-4(3H)-pyrimidinone or thione herbicidal agents” (BASF AKTIENGESELLSCHAFT, priority 1997, dated 1999):

Key:
[1] = tested on: Cyperus serotinus, Rottb.; test: Preemergence weed control under flooded paddy conditions, CYPSE (Flatsedge); assay type: in vivo; conditions: for herbicidal effect rating, CYPSE / CYPSE herbicidal effect rating: preemergence; as to herbicidal effect rating, CYPSE: meaning of each grade not given here
[2] = tested on: Cyperus iria; test: Preemergence weed control under flooded paddy conditions, CYPIR (Rice Flatsedge); assay type: in vivo; conditions: flooded paddy; for herbicidal effect rating, CYPIR / CYPIR herbicidal effect rating: preemergence; for CYPIR: preemergence weeds, herbicidal effect rating 0-9, three to four weeks after treatment; as to herbicidal effect rating, CYPIR: meaning of each grade not given here
[3] = tested on: Oryza sativa, (L.) Tebonnet; test: Rice tolerance to post-transplant applications under flooded paddy conditions (Example 187), ORYSAT (Rice, Tebonnet); conditions: for ORYSAT: herbicidal effect rating 0-9, three to four weeks after treatment; as to herbicidal effect rating ORYSAT: meaning of each grade not given here
[4] = tested on: Monochoria vaginalis, Presl.; test: Preemergence weed control under flooded paddy conditions, MOOVA (Monochoria); assay type: in vivo; conditions: flooded paddy; for herbicidal effect rating, MOOVA / MOOVA herbicidal effect rating: preemergence; for MOOVA: preemergence weeds, herbicidal effect rating 0-9, three to four weeks after treatment; as to herbicidal effect rating, MOOVA: meaning of each grade not given here
[5] = tested on: Sagittaria pygmaea, L.; test: Preemergence weed control under flooded paddy conditions, SAGPY (Arrowhead (Pygmaea)); assay type: in vivo; conditions: flooded paddy; for herbicidal effect rating, SAGPY / SAGPY herbicidal effect rating: preemergence; for SAGPY: preemergence weeds, herbicidal effect rating 0-9, three to four weeks after treatment; as to herbicidal effect rating, SAGPY: meaning of each grade not given here
[6] = tested on: Echinochloa oryzoides (Ard.) Fritsch.; test: Preemergence weed control under flooded paddy conditions, ECHORC (Watergrass (Calif.)); assay type: in vivo; conditions: flooded paddy; for herbicidal effect rating, ECHORC / ECHORC herbicidal effect rating: preemergence; for ECHORC: preemergence weeds, herbicidal effect rating 0-9, three to four weeks after treatment; as to herbicidal effect rating, ECHORC: meaning of each grade not given here
[7] = Rate 0.0320 kg/ha, rated 3-4 weeks after treatment
[8] = Rate 0.0620 kg/ha, rated 3-4 weeks after treatment
[9] = Rate 0.1250 kg/ha, rated 3-4 weeks after treatment
[10] = Rate 0.2500 kg/ha, rated 3-4 weeks after treatment
[11] = Rate 0.0320 kg/ha, rated three to four weeks after treatment
[12] = Rate 0.2500 kg/ha, rated three to four weeks after treatment
[13] = Rate 0.0620 kg/ha, rated three to four weeks after treatment
[14] = Rate 0.1250 kg/ha, rated three to four weeks after treatment
[15] = Rate 0.5000 kg/ha, rated 3-4 weeks after treatment

C=CC(CCCC)OC(=O)COc1ccc(C)cc1-c1nsc2ccc(-n3c(=O)cc(C(F)(F)F)n(C)c3=O)cc12 (stereo not shown) [Example 520, Acetic acid, {{2-{5-[3,6-dihydro-3-methyl-2,6-dioxo-4-(trifluoromethyl)-1(2H)-pyrimidinyl]-1,2-benzisothiazol-3-yl}-p-tolyl}oxy}-, 1-vinylpentyl ester]
herbicidal effect rating, CYPSE [1, 7]: 0.0 | herbicidal effect rating, CYPSE [1, 8]: 0.0 | herbicidal effect rating, CYPSE [1, 9]: 0.0 | herbicidal effect rating, CYPSE [1, 10]: 0.0 | herbicidal effect rating, CYPIR [2, 7]: 0.0 | herbicidal effect rating, CYPIR [2, 8]: 0.0 | herbicidal effect rating, CYPIR [2, 9]: 2.0 | herbicidal effect rating, CYPIR [2, 10]: 4.0 | herbicidal effect rating ORYSAT [3, 7]: 2.0 | herbicidal effect rating ORYSAT [3, 8]: 3.5 | herbicidal effect rating ORYSAT [3, 9]: 4.5 | herbicidal effect rating ORYSAT [3, 10]: 3.0 | herbicidal effect rating, MOOVA [4, 7]: 9.0 | herbicidal effect rating, MOOVA [4, 8]: 9.0 | herbicidal effect rating, MOOVA [4, 9]: 9.0 | herbicidal effect rating, MOOVA [4, 10]: 9.0 | herbicidal effect rating, SAGPY [5, 7]: 0.0 | herbicidal effect rating, SAGPY [5, 8]: 0.0 | herbicidal effect rating, SAGPY [5, 9]: 0.0 | herbicidal effect rating, SAGPY [5, 10]: 0.0 | herbicidal effect rating, ECHORC [6, 7]: 6.5 | herbicidal effect rating, ECHORC [6, 8]: 8.0 | herbicidal effect rating, ECHORC [6, 9]: 8.5 | herbicidal effect rating, ECHORC [6, 10]: 9.0

CN(Cc1ccc(Cl)cc1)S(=O)(=O)NC(=O)c1nsc2ccc(-n3c(=O)cc(C(F)(F)F)n(C)c3=O)cc12 [Example 420, 1,2-Benzisothiazole-3-carboxamide, N-[(p-chlorobenzyl)methylsulfamoyl]-5-[3,6-dihydro-3-methyl-2,6-dioxo-4-(trifluoromethyl)-1(2H)-pyrimidinyl]-]
CYPSE ([1]; 0.2500 kg/ha, preemergence weeds, herbicidal effect rating 0-9, three to four weeks after treatment): 0.0 | CYPIR ([2]; 0.0320 kg/ha): 2.0 | CYPIR ([2]; 0.0620 kg/ha): 4.0 | CYPIR ([2]; 0.1250 kg/ha): 6.0 | CYPIR ([2]; 0.2500 kg/ha): 6.0 | ORYSAT ([3]; 0.0320 kg/ha): 0.0 | ORYSAT ([3]; 0.0620 kg/ha): 2.0 | ORYSAT ([3]; 0.1250 kg/ha): 3.0 | ORYSAT ([3]; 0.2500 kg/ha): 5.0 | MOOVA ([4]; 0.0320 kg/ha): 9.0 | MOOVA ([4]; 0.0620 kg/ha): 9.0 | MOOVA ([4]; 0.1250 kg/ha): 9.0 | MOOVA ([4]; 0.2500 kg/ha): 9.0 | SAGPY ([5]; 0.0320 kg/ha): 0.0 | SAGPY ([5]; 0.0620 kg/ha): 0.0 | SAGPY ([5]; 0.1250 kg/ha): 2.0 | SAGPY ([5]; 0.2500 kg/ha): 3.0 | ECHORC ([6]; 0.0320 kg/ha): 7.0 | ECHORC ([6]; 0.0620 kg/ha): 7.0 | ECHORC ([6]; 0.1250 kg/ha): 7.0 | ECHORC ([6]; 0.2500 kg/ha): 7.0

CC(c1nsc2ccc(-n3c(=O)cc(C(F)(F)F)n(C)c3=O)cc12)S(C)(=O)=O (stereo not shown) [Example 590, 2,4(1H,3H)-Pyrimidinedione, 1-methyl-3-{3-[1-(methylsulfonyl)ethyl}-1,2-benzisothiazol-5-yl}-6-(trifluoromethyl)-]
herbicidal effect rating, CYPSE [1, 11]: 0.0 | herbicidal effect rating, CYPSE [1, 12]: 5.0 | herbicidal effect rating, CYPIR [2, 11]: 2.0 | herbicidal effect rating, CYPIR [2, 13]: 7.0 | herbicidal effect rating, CYPIR [2, 14]: 7.0 | herbicidal effect rating, CYPIR [2, 12]: 9.0 | herbicidal effect rating ORYSAT [3, 11]: 3.0 | herbicidal effect rating ORYSAT [3, 13]: 5.0 | herbicidal effect rating ORYSAT [3, 14]: 5.0 | herbicidal effect rating ORYSAT [3, 12]: 6.0 | herbicidal effect rating, MOOVA [4, 13]: 7.0 | herbicidal effect rating, MOOVA [4, 14]: 7.0 | herbicidal effect rating, MOOVA [4, 12]: 9.0 | herbicidal effect rating, SAGPY [5, 11]: 3.0 | herbicidal effect rating, SAGPY [5, 13]: 4.0 | herbicidal effect rating, SAGPY [5, 14]: 8.0 | herbicidal effect rating, SAGPY [5, 12]: 9.0 | herbicidal effect rating, ECHORC [6, 11]: 3.0 | herbicidal effect rating, ECHORC [6, 13]: 5.0 | herbicidal effect rating, ECHORC [6, 14]: 6.0 | herbicidal effect rating, ECHORC [6, 12]: 9.0

CCOC(=O)c1ccc(NC(=O)C(C)Oc2ccc(C)cc2-c2nsc3ccc(-n4c(=O)cc(C(F)(F)F)n(C)c4=O)cc23)cc1 (stereo not shown) [Example 541, Benzoic acid, p-{2-{{2-{5-[3,6-dihydro-3-methyl-2,6-dioxo-4-(trifluoromethyl)-1(2H)-pyrimidinyl]-1,2-benzisothiazol-3-yl}-p-tolyl}oxy}propionamido}-, ethyl ester]
herbicidal effect rating, CYPSE [1, 8]: 0.0 | herbicidal effect rating, CYPSE [1, 9]: 0.0 | herbicidal effect rating, CYPSE [1, 10]: 0.0 | herbicidal effect rating, CYPSE [1, 15]: 0.0 | herbicidal effect rating, CYPIR [2, 8]: 3.0 | herbicidal effect rating, CYPIR [2, 9]: 4.0 | herbicidal effect rating, CYPIR [2, 10]: 6.0 | herbicidal effect rating, CYPIR [2, 15]: 9.0 | herbicidal effect rating ORYSAT [3, 8]: 0.0 | herbicidal effect rating ORYSAT [3, 9]: 0.0 | herbicidal effect rating ORYSAT [3, 10]: 0.0 | herbicidal effect rating ORYSAT [3, 15]: 2.0 | herbicidal effect rating, MOOVA [4, 8]: 9.0 | herbicidal effect rating, MOOVA [4, 9]: 9.0 | herbicidal effect rating, MOOVA [4, 10]: 9.0 | herbicidal effect rating, MOOVA [4, 15]: 9.0 | herbicidal effect rating, SAGPY [5, 8]: 0.0 | herbicidal effect rating, SAGPY [5, 9]: 0.0 | herbicidal effect rating, SAGPY [5, 10]: 0.0 | herbicidal effect rating, SAGPY [5, 15]: 0.0 | herbicidal effect rating, ECHORC [6, 8]: 0.0 | herbicidal effect rating, ECHORC [6, 9]: 0.0 | herbicidal effect rating, ECHORC [6, 10]: 4.0 | herbicidal effect rating, ECHORC [6, 15]: 6.0

Cc1cccc(COCc2nsc3ccc(-n4c(=O)cc(C(F)(F)F)n(C)c4=O)cc23)c1 [Example 587, 2,4(1H,3H)-Pyrimidinedione, 1-methyl-3-{3-{[(m-methylbenzyl)oxy]methyl}-1,2-benzisothiazol-5-yl}-6-(trifluoromethyl)-]
herbicidal effect rating, CYPSE [1, 11]: 0.0 | herbicidal effect rating, CYPSE [1, 14]: 0.0 | herbicidal effect rating, CYPIR [2, 11]: 4.0 | herbicidal effect rating, CYPIR [2, 13]: 8.0 | herbicidal effect rating, CYPIR [2, 14]: 9.0 | herbicidal effect rating, CYPIR [2, 12]: 9.0 | herbicidal effect rating ORYSAT [3, 11]: 4.0 | herbicidal effect rating ORYSAT [3, 13]: 4.0 | herbicidal effect rating ORYSAT [3, 14]: 4.0 | herbicidal effect rating ORYSAT [3, 12]: 5.0 | herbicidal effect rating, MOOVA [4, 11]: 5.0 | herbicidal effect rating, MOOVA [4, 13]: 5.0 | herbicidal effect rating, MOOVA [4, 14]: 9.0 | herbicidal effect rating, MOOVA [4, 12]: 9.0 | herbicidal effect rating, SAGPY [5, 11]: 0.0 | herbicidal effect rating, SAGPY [5, 13]: 2.0 | herbicidal effect rating, SAGPY [5, 14]: 5.0 | herbicidal effect rating, SAGPY [5, 12]: 5.0 | herbicidal effect rating, ECHORC [6, 11]: 7.0 | herbicidal effect rating, ECHORC [6, 13]: 7.0 | herbicidal effect rating, ECHORC [6, 14]: 9.0 | herbicidal effect rating, ECHORC [6, 12]: 9.0

Cn1c(C(F)(F)F)cc(=O)n(-c2ccc3snc(C=C(Cl)Cl)c3c2)c1=O [Example 287, 2,4(1H,3H)-Pyrimidinedione, 3-[3-(2,2-dichlorovinyl)-1,2-benzisothiazol-5-yl]-1-methyl-6-(trifluoromethyl)-]
CYPSE herbicidal effect rating [1, 11]: 0.0 | CYPSE herbicidal effect rating [1, 13]: 0.0 | CYPSE herbicidal effect rating [1, 14]: 0.0 | CYPSE herbicidal effect rating [1, 12]: 4.0 | CYPIR herbicidal effect rating [2, 11]: 0.0 | CYPIR herbicidal effect rating [2, 13]: 9.0 | CYPIR herbicidal effect rating [2, 14]: 9.0 | CYPIR herbicidal effect rating [2, 12]: 9.0 | ORYSAT herbicidal effect rating [3, 11]: 0.0 | ORYSAT herbicidal effect rating [3, 13]: 3.0 | ORYSAT herbicidal effect rating [3, 14]: 3.0 | ORYSAT herbicidal effect rating [3, 12]: 5.0 | MOOVA herbicidal effect rating [4, 11]: 9.0 | MOOVA herbicidal effect rating [4, 13]: 9.0 | MOOVA herbicidal effect rating [4, 14]: 9.0 | MOOVA herbicidal effect rating [4, 12]: 9.0 | SAGPY herbicidal effect rating [5, 11]: 0.0 | SAGPY herbicidal effect rating [5, 13]: 0.0 | SAGPY herbicidal effect rating [5, 14]: 0.0 | SAGPY herbicidal effect rating [5, 12]: 0.0 | ECHORC herbicidal effect rating [6, 11]: 0.0 | ECHORC herbicidal effect rating [6, 13]: 2.0 | ECHORC herbicidal effect rating [6, 14]: 5.0 | ECHORC herbicidal effect rating [6, 12]: 7.0
